Read-outs that look alike come from different tables or passages of the source.
Molecular target: T1, recombinant human GluN1/GluN2A receptor (Homo sapiens, UniProt Q05586+Q12879)
T1 construct: expressed in transfected cells; host or cells: HEK293, tetracycline-inducible expression
Assay: Whole-cell patch clamp of mammalian cells (Syncropatch 384i), NMDA modulation
Type: cell-based
Details: HEK293 cells, human GluN1/GluN2A, glutamate 1 μM / glycine 100 μM, -80 mV, peak amplitude increase; for EC50: read-out: EC50
Summary of the method: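 HEK293 cells with tetracycline-induced (50 ng/ml, 18–24 h) human GluN1/GluN2A, automated whole-cell recording at −80 mV, pH 7.4 external. After 120 s compound pre-incubation, compound applied with glutamate 1 μM/glycine 100 μM; fold peak increase (Icomp/Icontrol)−1 over 8 concentrations fitted four-parameter logistic.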

T1 sequence (Q12879 23-1464, other chains not shown): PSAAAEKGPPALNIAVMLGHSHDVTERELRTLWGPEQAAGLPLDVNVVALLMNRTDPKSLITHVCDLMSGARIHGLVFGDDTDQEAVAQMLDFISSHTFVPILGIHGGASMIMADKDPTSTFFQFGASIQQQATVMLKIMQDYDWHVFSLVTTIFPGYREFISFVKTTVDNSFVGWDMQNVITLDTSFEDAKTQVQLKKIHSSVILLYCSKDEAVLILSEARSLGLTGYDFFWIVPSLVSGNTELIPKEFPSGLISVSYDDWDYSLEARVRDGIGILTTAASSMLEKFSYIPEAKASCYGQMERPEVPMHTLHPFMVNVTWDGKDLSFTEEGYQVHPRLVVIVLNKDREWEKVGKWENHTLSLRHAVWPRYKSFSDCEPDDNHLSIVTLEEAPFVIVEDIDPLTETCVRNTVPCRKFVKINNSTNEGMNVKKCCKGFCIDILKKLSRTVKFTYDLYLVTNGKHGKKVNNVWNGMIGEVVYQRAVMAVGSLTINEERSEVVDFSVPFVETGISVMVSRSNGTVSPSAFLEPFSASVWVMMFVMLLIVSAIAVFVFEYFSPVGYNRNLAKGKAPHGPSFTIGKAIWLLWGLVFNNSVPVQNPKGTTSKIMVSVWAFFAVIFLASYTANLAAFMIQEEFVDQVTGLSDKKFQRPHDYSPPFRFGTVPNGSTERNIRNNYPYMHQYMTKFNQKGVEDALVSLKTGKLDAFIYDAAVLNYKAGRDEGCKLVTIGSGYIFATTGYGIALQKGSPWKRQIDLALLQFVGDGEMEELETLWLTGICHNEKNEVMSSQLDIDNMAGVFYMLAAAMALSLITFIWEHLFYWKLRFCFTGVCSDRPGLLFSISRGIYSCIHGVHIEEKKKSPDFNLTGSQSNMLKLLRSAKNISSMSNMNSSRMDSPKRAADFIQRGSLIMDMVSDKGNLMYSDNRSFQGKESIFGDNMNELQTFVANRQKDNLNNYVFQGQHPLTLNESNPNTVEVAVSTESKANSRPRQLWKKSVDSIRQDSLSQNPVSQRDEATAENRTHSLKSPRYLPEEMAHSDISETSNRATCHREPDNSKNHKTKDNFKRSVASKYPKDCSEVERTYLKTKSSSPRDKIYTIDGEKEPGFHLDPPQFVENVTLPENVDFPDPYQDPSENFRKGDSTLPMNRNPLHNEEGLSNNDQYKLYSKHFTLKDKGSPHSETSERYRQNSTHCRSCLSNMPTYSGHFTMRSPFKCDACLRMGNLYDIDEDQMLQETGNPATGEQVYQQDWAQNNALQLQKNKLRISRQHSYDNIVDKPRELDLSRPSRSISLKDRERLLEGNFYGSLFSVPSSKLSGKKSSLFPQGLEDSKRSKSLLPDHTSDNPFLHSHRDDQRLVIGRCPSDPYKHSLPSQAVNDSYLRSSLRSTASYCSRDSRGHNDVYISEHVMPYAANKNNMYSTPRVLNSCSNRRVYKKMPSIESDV

CC[C@]1(O)CC[C@@]2(C)[C@@H](CC[C@@H]3[C@@H]2CC[C@]2(C)[C@@H]([C@H](C)CCCC(C)(C)O)CCC[C@@H]32)C1 [Compound H-4, (2S,4aS,4bS,6aR,7R,10aS,10bR,12aS)-2-ethyl-7-((R)-6-hydroxy-6-methylheptan-2-yl)-4a,6a-dimethyloctadecahydrochrysen-2-ol]
Emax (Table H-2): 100 to 200%
EC50 (Table H-2): 100 to 500 nM

CC[C@]1(O)CC[C@@]2(C)C(=CC[C@H]3[C@@H]4CC[C@H]([C@H](C)CC[C@@H](O)C(C)C)[C@@]4(CC)CC[C@@H]32)C1 [Compound F-14, (3S,8S,9S,10R,13R,14S,17R)-3,13-diethyl-17-((2R,5R)-5-hydroxy-6-methylheptan-2-yl)-10-methyl-2,3,4,7,8,9,10,11,12,13,14,15,16,17-tetradecahydro-1H-cyclopenta[a]phenanthren-3-ol]
EC50 (Table F-2): 100 to 500 nM

CC[C@]1(O)CC[C@@]2(C)C(=CC[C@H]3[C@@H]4CC[C@H]([C@H](C)CC[C@H](O)C5(C#N)CC5)[C@@]4(C)CC[C@@H]32)C1 [Compound C-20, 1-((1S,4R)-4-((3S,8S,9S,10R,13R,14S,17R)-3-ethyl-3-hydroxy-10,13-dimethyl-2,3,4,7,8,9,10,11,12,13,14,15,16,17-tetradecahydro-1H-cyclopenta[a]phenanthren-17-yl)-1-hydroxypentyl)cyclopropane-1-carbonitrile]
EC50 (Table C-2): 100 to 500 nM

CC[C@]1(O)CC[C@@]2(C)[C@@H](CC[C@@H]3[C@@H]2CC[C@]2(C)[C@@H]([C@H](C)CC[C@H](O)C(C)(C)C#N)CC[C@@H]32)C1 [Compound C-2, (3S,6R)-6-((3S,5S,8R,9S,10S,13R,14S,17R)-3-ethyl-3-hydroxy-10,13-dimethylhexadecahydro-1H-cyclopenta[a]phenanthren-17-yl)-3-hydroxy-2,2-dimethylheptanenitrile]
Emax (Table C-2): 100 to 200%
EC50 (Table C-2): 1 to 100 nM

CC[C@]1(O)CC[C@]2(C)C3=CC[C@]4(C)[C@@H]([C@H](C)CCC(C)(C)O)CC[C@H]4[C@@H]3CC[C@H]2C1 [Compound E-5, (3S,5S,8S,10S,13R,14S,17R)-3-ethyl-17-((R)-5-hydroxy-5-methylhexan-2-yl)-10,13-dimethyl-2,3,4,5,6,7,8,10,12,13,14,15,16,17-tetradecahydro-1H-cyclopenta[a]phenanthren-3-ol]
Emax (Table E-2): 100 to 200%
EC50 (Table E-2): 1 to 100 nM

CC[C@]1(O)CC[C@@]2(C)[C@@H](CC[C@H]3[C@@H]4[C@@H](C)C[C@H]([C@H](C)CC[C@](C)(O)C(F)(F)F)[C@@]4(C)CC[C@@H]32)C1 [Compound B-14, (3S,5S,8R,9S,10S,13R,14S,15S,17R)-3-ethyl-10,13,15-trimethyl-17-((2R,5S)-6,6,6-trifluoro-5-hydroxy-5-methylhexan-2-yl)hexadecahydro-1H-cyclopenta[a]phenanthren-3-ol]
Emax (Table B-2): > 200%
EC50 (Table B-2): 1 to 100 nM

CC[C@]1(O)CC[C@@]2(C)C(=CC[C@H]3[C@@H]4CC[C@H]([C@@H](CC[C@@H](O)C(C)C)OC)[C@@]4(C)CC[C@@H]32)C1 [Compound A-15, (3S,8S,9S,10R,13S,14S,17S)-3-ethyl-17-((1R,4R)-4-hydroxy-1-methoxy-5-methylhexyl)-10,13-dimethyl-2,3,4,7,8,9,10,11,12,13,14,15,16,17-tetradecahydro-1H-cyclopenta[a]phenanthren-3-ol]
Emax (Table A-2): > 200%
EC50 (Table A-2): 1 to 100 nM

CC[C@]1(O)CC[C@@]2(C)[C@@H](CC[C@@H]3[C@@H]2CC[C@]2(CC)[C@@H]([C@H](C)CC[C@@H](O)C(C)C)CC[C@@H]32)C1 [Compound F-7, (3S,5S,8R,9S,10S,13R,14S,17R)-3,13-diethyl-17-((2R,5R)-5-hydroxy-6-methylheptan-2-yl)-10-methylhexadecahydro-1H-cyclopenta[a]phenanthren-3-ol]
EC50 (Table F-2): 100 to 500 nM

CC[C@]1(O)CC[C@@H]2CC[C@@H]3[C@H](CC[C@]4(C)[C@@H]([C@H](C)CC[C@@](C)(O)C(F)(F)F)CC[C@@H]34)[C@@]2(C)CC1 [Compound D-2, (1R,3aS,3bR,5aS,8S,10aS,10bS,12aR)-8-ethyl-10a,12a-dimethyl-1-((2R,5R)-6,6,6-trifluoro-5-hydroxy-5-methylhexan-2-yl)octadecahydrocyclohepta[a]cyclopenta[f]naphthalen-8-ol]
Emax (Table D-2): < 100%
EC50 (Table D-2): > 1000 nM

CC(C)[C@@H](O)CC[C@@H](C)[C@H]1CCC[C@H]2[C@@H]3CC=C4C[C@@](C)(O)CC[C@]4(C)[C@H]3CC[C@]12C [Compound H-7, (2S,4aR,4bS,6aR,7R,10aS,10bS)-7-((2R,5S)-5-hydroxy-6-methylheptan-2-yl)-2,4a,6a-trimethyl-1,2,3,4,4a,4b,5,6,6a, 7,8,9,10,10a, 10b,11-hexadecahydrochrysen-2-ol]
EC50 (Table H-2): 100 to 500 nM

CC[C@]1(O)CC[C@@]2(C)[C@@H](CC[C@@H]3[C@@H]2CC[C@]2(C)[C@@H]([C@@H](CC[C@](C)(O)C(F)(F)F)OC)CC[C@@H]32)C1 [Compound A-24, (3S,5S,8R,9S,10S,13S,14S,17S)-3-ethyl-10,13-dimethyl-17-((1R,4S)-5,5,5-trifluoro-4-hydroxy-1-methoxy-4-methylpentyl) hexadecahydro-1H-cyclopenta[a]phenanthren-3-ol]
EC50 (Table A-2): 100 to 500 nM

CC[C@]1(O)CC[C@@]2(C)[C@@H](CC[C@@H]3[C@@H]2CC[C@]2(C)[C@@H]([C@H](C)CCCC(C)(C)O)[C@H](C)C[C@@H]32)C1 [Compound B-22, (3S,5S,8R,9S,10S,13S,14S,16R,17S)-3-ethyl-17-((R)-6-hydroxy-6-methylheptan-2-yl)-10,13,16-trimethylhexadecahydro-1H-cyclopenta[a]phenanthren-3-ol]
Emax (Table B-2): > 200%
EC50 (Table B-2): 100 to 500 nM

C[C@H](CC[C@](C)(O)C(F)(F)F)[C@H]1CC[C@H]2[C@@H]3CC[C@H]4C[C@@](C)(O)CC[C@]4(C)C3=CC[C@]12C [Compound E-13, (3S,5S,8S,10S,13R,14S,17R)-3,10,13-trimethyl-17-((2R,5S)-6,6,6-trifluoro-5-hydroxy-5-methylhexan-2-yl)-2,3,4,5,6,7,8,10,12,13,14,15,16,17-tetradecahydro-1H-cyclopenta[a]phenanthren-3-ol]
EC50 (Table E-2): 1 to 100 nM

CCO[C@H](CC[C@H](O)C(C)C)[C@H]1CC[C@H]2[C@@H]3CC[C@H]4C[C@](O)(CC)CC[C@]4(C)[C@H]3CC[C@]12C [Compound A-11, (3S,5S,8R,9S,10S,13S,14S,17S)-17-((1R,4S)-1-ethoxy-4-hydroxy-5-methylhexyl)-3-ethyl-10,13-dimethylhexadecahydro-1H-cyclopenta[a]phenanthren-3-ol]
EC50 (Table A-2): > 1000 nM

COC[C@]1(O)CC[C@@]2(C)[C@@H](CC[C@@H]3[C@@H]2CC[C@]2(C)[C@@H]([C@H](C)CC[C@@H](O)C(C)(C)C#N)CC[C@@H]32)C1 [Compound C-9, (3R,6R)-3-hydroxy-6-((3S,5S,8R,9S,10S,13R,14S,17R)-3-hydroxy-3-(methoxymethyl)-10,13-dimethylhexadecahydro-1H-cyclopenta[a]phenanthren-17-yl)-2,2-dimethylheptanenitrile]
Emax (Table C-2): < 100%
EC50 (Table C-2): 1 to 100 nM

CC[C@]1(O)CC[C@@]2(C)C(=CC[C@H]3[C@@H]4CC[C@H]([C@H](C)CC[C@@H](O)C5(C#N)CC5)[C@@]4(C)CC[C@@H]32)C1 [Compound C-21, 1-((1R,4R)-4-((3S,8S,9S,10R,13R,14S,17R)-3-ethyl-3-hydroxy-10,13-dimethyl-2,3,4,7,8,9,10,11,12,13,14,15,16,17-tetradecahydro-1H-cyclopenta[a]phenanthren-17-yl)-1-hydroxypentyl)cyclopropane-1-carbonitrile]
EC50 (Table C-2): 1 to 100 nM

CC[C@]1(O)CC[C@]2(C)C3=CC[C@]4(C)[C@@H]([C@H](C)CC[C@@H](O)C(C)(C)C#N)CC[C@H]4[C@@H]3CC[C@H]2C1 [Compound C-28, (3R,6R)-6-((3S,5S,8S,10S,13R,14S,17R)-3-ethyl-3-hydroxy-10,13-dimethyl-2,3,4,5,6,7,8,10,12,13,14,15,16,17-tetradecahydro-1H-cyclopenta[a]phenanthren-17-yl)-3-hydroxy-2,2-dimethylheptanenitrile]
EC50 (Table C-2): 1 to 100 nM
EC50 (Table E-2): 1 to 100 nM

CC[C@]1(O)CC[C@@]2(C)[C@@H](CC[C@@H]3[C@@H]2CC[C@]2(C)[C@@H]([C@@H](C#N)CCCC(C)(C)O)CC[C@@H]32)C1 [Compound A-9a]
Emax (Table A-2): < 100%
EC50 (Table A-2): 1 to 100 nM

Source: patent US20240368214A1, “POSITIVE NMDA-MODULATING COMPOUNDS AND METHODS OF USE THEREOF” (SAGE THERAPEUTICS, INC., priority 2021, published 2024)
